What was measured:
[1] = target: T1, Human Prostaglandin-H Synthase-2 (hPGH-2), COX-2 (Homo sapiens, UniProt P35354); assay: Human prostaglandin-H synthase-2 (hPGH-2) inhibition assay in transfected COS-7 cells (PGE-2); assay type: cell-based; settings: COS-7 cells transfected with hPGH-2, arachidonic acid 20 μM, PGE-2 readout
T1 construct: expressed in transfected cells; host or cells: COS-7
T1 sequence (P35354 18-604): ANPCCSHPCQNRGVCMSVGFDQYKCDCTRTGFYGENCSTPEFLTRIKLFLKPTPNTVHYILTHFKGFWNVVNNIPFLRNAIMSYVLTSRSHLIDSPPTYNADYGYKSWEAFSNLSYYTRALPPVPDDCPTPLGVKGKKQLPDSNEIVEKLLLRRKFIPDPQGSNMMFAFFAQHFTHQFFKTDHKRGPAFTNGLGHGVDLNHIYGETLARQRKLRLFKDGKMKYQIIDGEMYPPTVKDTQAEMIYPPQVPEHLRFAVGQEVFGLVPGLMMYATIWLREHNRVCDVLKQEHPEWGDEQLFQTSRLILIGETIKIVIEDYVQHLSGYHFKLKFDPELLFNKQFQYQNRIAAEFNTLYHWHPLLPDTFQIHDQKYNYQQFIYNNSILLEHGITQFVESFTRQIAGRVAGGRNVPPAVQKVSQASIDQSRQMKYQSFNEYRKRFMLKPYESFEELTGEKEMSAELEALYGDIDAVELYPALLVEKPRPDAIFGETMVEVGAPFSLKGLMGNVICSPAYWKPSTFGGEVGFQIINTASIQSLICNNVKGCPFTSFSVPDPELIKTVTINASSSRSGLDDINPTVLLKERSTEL
Description: The cells were grown in 10% fetal bovine serum (FBS) in DMEM medium (Invitrogen Life Technologies) at 37° C. in an atmosphere with 5% CO2 and 90% moisture. 20 000 cells/well were plated in 96 well plate (Falcon). The cells in a negative control were cultured only in medium (NC), while the secretion of TNF-α in a positive control was stimulated by the addition of 500 pg/mL lipopolysaccharide (LPS, E. coli serotype 0111:B4, Sigma) (PC). The effect of the tested substances on TNF-α secretion was assessed after their addition to cell cultures stimulated with LPS (TS). […] The percentage inhibition of TNF-α production was calculated by the following equation: % inhibition=[1-(TS-NC)/(PC-NC)]×100. IC50 value was defined as the concentration of the substance at which 50% of TNF-α production was inhibited. […] After 30 minutes supernatants were removed and prostoglandin E2 (PGE-2) was measured with a PGE-2 assay kit (Cayman) following the manufacturer's instructions. No production of PGE-2 was detected in negative controls. % inhibition was calculated by the following equation: % inhibition=(1-sample PGE-2 concentration/positive control PGE-2 concentration)*100.

[2] = test system: eosinophil number in BAL fluid; assay: Model of lung eosinophilia in mice; assay type: in vivo, Balb/C mice; settings: OVA-sensitised mice, i.n. or i.p. dosing, compared to the vehicle treated control group
Description: Male Balb/C mice with a body weight of 20-25 g were randomly divided into groups, and sensitized by an i.p. injection of ovalbumin (OVA, Sigma) on day zero and day fourteen. On the twentieth day, the mice were subjected to a challenge test by i.n. (intranasal) application of OVA (positive control or test group) or PBS (negative control). 48 hours after i.n. application of OVA, the animals were anaesthetized and the lungs were rinsed with 1 mL of PBS. The cells were separated on a Cytospin 3 cytocentrifuge (Shandon). The cells were stained in Diff-Quick (Dade) and the percentage of eosinophils was determined by differential counting of at least 100 cells. The compounds were administered daily i.n. or i.p. in different doses 2 days before the provocative test and up to the completion of the test. Compounds were administered as suspension either in carboxymethyl cellulose or in lactose solution. Fluticasone and beclomethasone were used as standard anti-inflammatory substances for comparison.

SMILES | IC50 [1] | inhibition of relative eosinophil number in BAL fluid [2]
CCC1OC(=O)C(C)C(OC2CC(C)(OC)C(O)C(C)O2)C(C)C(OC2OC(C)CC(N(C)CCCNC(=O)C=Cc3cc4c(s3)-c3cc(Cl)ccc3Sc3ccccc3-4)C2O)C(C)(O)CC(C)CN(C)C(C)C(O)C1(C)O (centres unmarked) [Compound 15] | < 10 µM | –
CCC1OC(=O)C(C)C(O)C(C)C(OC2OC(C)CC(N(C)C)C2O)C(C)(O)CC(C)CN(CCCNC(=O)C=Cc2cc3c(s2)-c2cc(C)ccc2Sc2ccccc2-3)C(C)C(O)C1(C)O (centres unmarked) [Compound 21] | – | statistically significant inhibition

Source: US20080096830A1, “Anti-Inflammatory Macrolide Conjugates” (priority 2005, published 2008)
